From patent publication US20200131669A1, “CYCLIC PEPTIDE COMPOUND HAVING HIGH MEMBRANE PERMEABILITY, AND LIBRARY CONTAINING SAME” (Chugai Seiyaku Kabushiki Kaisha, priority 2017, published 2020)
Starred links: 1 amine or outer side, 2 acyl side, 3 side chain; linkers in the order of their positions; H or OH if unused. Positions of bridges follow the written chain, without caps; N, C: chain ends. Non-standard residues stand in square brackets, D forms with d. Residues, ends and D or L forms follow the SMILES beside them. ξ: configuration not given here. *: point of attachment. NMePhe(3-Cl) = CN[C@@H](Cc1cccc(Cl)c1)C(=O)O; NMePhe(4-Cl) = CN[C@@H](Cc1ccc(Cl)cc1)C(=O)O; X16 = O=C(C1CCCCC1)[C@H](CC(=O)[*:2])N[*:1]; NMehPhe = CN[C@@H](CCc1ccccc1)C(=O)O; hhPhe = N[C@@H](CCCc1ccccc1)C(=O)O; NMeF = CN[C@@H](Cc1ccccc1)C(=O)O; NMeGABA = CN(CCCC(=O)[*:2])[*:1]; NMeI = CC[C@H](C)[C@H](NC)C(=O)O; hPhe = N[C@@H](CCc1ccccc1)C(=O)O; 4Pal = N[C@@H](Cc1ccncc1)C(=O)O; NMeD = CN[C@@H](CC(=O)O)C(=O)O; NMeL = CN[C@@H](CC(C)C)C(=O)O; ξNMeF = CNC(Cc1ccccc1)C(=O)O; NMeV = CN[C@H](C(=O)O)C(C)C; NMeA = CN[C@@H](C)C(=O)O; Piperidide = C1CCN(*)CC1; dNMeA = CN[C@H](C)C(=O)O; X2 = Fc1cncc(C*)c1; Sar = CNCC(=O)O; tBu = CC(C)(C)*

Test: Caco-2 membrane permeability, improved method as used in the following Examples (96-well, 20 to 24 h preincubation)
Format: in vitro ADME
Conditions: human, Caco-2, Caco-2 (cm/sec)
How it was run: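 Caco-2 monolayers were grown three weeks and preincubated 20–24 h at 37 °C with compound in DMEM+FaSSIF (1% DMSO) apically. The assay then used compound in FaSSIF/HBSS (1% DMSO, pH 6.0) apically and HBSS with 4% BSA (pH 7.4) basally. Basal samples were taken at 180 min for LC/MS, and Papp (cm/sec) was calculated.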
In the case of `CC(C)C[C@H]1C(=O)N[C@@H](COC(C)(C)C)C(=O)N(C)[C@@H](Cc2ccccc2)C(=O)N(C)[C@@H](CC(C)C)C(=O)N(C)[C@H](C(=O)N2CCCCC2)CC(=O)N2CCC[C@@H]2C(=O)N(C)[C@@H](Cc2cccc(Cl)c2)C(=O)N[C@@H](C(C)C)C(=O)N(C)[C@@H](C(C)C)C(=O)N[C@@H]([C@@H](C)O)C(=O)N(C)CC(=O)N1C` [pd165] ([dP][NMePhe(3-Cl)]V[NMeV]T[Sar][NMeL]S(tBu)[NMeF][NMeL][NMeD]-Piperidide; lactam N-11), the Papp A→B at 180 min is reported as 2.8 ×10⁻⁶ cm/s. `CC(C)C[C@H]1C(=O)N[C@@H](COC(C)(C)C)C(=O)N(C)[C@@H](Cc2ccccc2)C(=O)N(C)[C@@H](CC(C)C)C(=O)N(C)[C@H](C(=O)N2CCCCC2)CC(=O)N2CCC[C@H]2C(=O)N(C)[C@@H](Cc2cccc(Cl)c2)C(=O)N[C@@H](C(C)C)C(=O)N(C)[C@@H](C(C)C)C(=O)N[C@@H]([C@@H](C)O)C(=O)N(C)CC(=O)N1C` [pd166] (P[NMePhe(3-Cl)]V[NMeV]T[Sar][NMeL]S(tBu)[NMeF][NMeL][NMeD]-Piperidide; lactam N-11) showed a Papp A→B at 180 min of 3.2 ×10⁻⁶ cm/s. Compound `CC(C)C[C@H]1C(=O)N[C@@H](COC(C)(C)C)C(=O)N(C)[C@@H](Cc2ccccc2)C(=O)N(C)[C@@H](CC(C)C)C(=O)N(C)[C@H](C(=O)N2CCCCC2)CC(=O)N(C)[C@H](C)C(=O)N(C)[C@@H](Cc2cccc(Cl)c2)C(=O)N[C@@H](C(C)C)C(=O)N(C)[C@@H](C(C)C)C(=O)N[C@@H]([C@@H](C)O)C(=O)N(C)CC(=O)N1C` [pd168] ([dNMeA][NMePhe(3-Cl)]V[NMeV]T[Sar][NMeL]S(tBu)[NMeF][NMeL][NMeD]-Piperidide; lactam N-11) has a Papp A→B at 180 min of 2.3 ×10⁻⁶ cm/s. In the case of `CC(C)C[C@H]1C(=O)N[C@@H](COC(C)(C)C)C(=O)N(C)[C@@H](Cc2ccccc2)C(=O)N(C)[C@@H](CC(C)C)C(=O)N(C)[C@H](C(=O)N2CCCCC2)CC(=O)N(C)[C@@H](C)C(=O)N(C)[C@@H](Cc2cccc(Cl)c2)C(=O)N[C@@H](C(C)C)C(=O)N(C)[C@@H](C(C)C)C(=O)N[C@@H]([C@@H](C)O)C(=O)N(C)CC(=O)N1C` [pd169] ([NMeA][NMePhe(3-Cl)]V[NMeV]T[Sar][NMeL]S(tBu)[NMeF][NMeL][NMeD]-Piperidide; lactam N-11), the Papp A→B at 180 min is reported as 3.8 ×10⁻⁶ cm/s. With `CC[C@H](C)[C@@H]1NC(=O)[C@H](CC(C)C)N(C)C(=O)CCCN(C)C(=O)C[C@@H](C(=O)C2CCCCC2)NC(=O)[C@H](CC(C)C)N(C)C(=O)[C@H](C)N(C)C(=O)[C@H](Cc2ccncc2)NC(=O)[C@H](CC(C)C)N(C)C(=O)[C@H](COC(C)(C)C)NC(=O)[C@H](Cc2cccc(Cl)c2)N(C)C(=O)[C@H](CC(C)C)N(C)C1=O` [pd170] (cyclo([4Pal][NMeA][NMeL][X16][NMeGABA][NMeL]I[NMeL][NMePhe(3-Cl)]S(tBu)[NMeL])) the Papp A→B at 180 min was 1.6 ×10⁻⁶ cm/s. `CC(C)C[C@@H]1NC(=O)[C@H](CC(C)C)N(C)C(=O)[C@H](C)N(C)C(=O)[C@H]([C@@H](C)O)NC(=O)[C@H](CC(C)C)N(C)C(=O)[C@H](COC(C)(C)C)NC(=O)[C@H](Cc2cccc(Cl)c2)N(C)C(=O)[C@H](CC(C)C)NC(=O)[C@H](C(C)C)N(C)C(=O)[C@@H](C(C)C)NC(=O)C[C@@H](C(=O)N2CCCCC2)NC1=O` [pd171] ([dV][NMeV]L[NMePhe(3-Cl)]S(tBu)[NMeL]T[NMeA][NMeL]LD-Piperidide; lactam N-11) showed a Papp A→B at 180 min of 1.2 ×10⁻⁶ cm/s. In the case of `CC(C)C[C@@H]1NC(=O)[C@H](CC(C)C)N(C)C(=O)[C@@H](CC(C)C)NC(=O)C[C@@H](C(=O)N2CCCCC2)NC(=O)[C@H](CC(C)C)N(C)C(=O)[C@H](Cc2cccc(Cl)c2)N(C)C(=O)[C@H](Cc2ccncc2)NC(=O)[C@H](CC(C)C)N(C)C(=O)CN(C)C(=O)[C@H]([C@@H](C)O)NC(=O)[C@H](CC(C)C)N(C)C1=O` [pd172] ([dL][NMeL]L[NMeL]T[Sar][NMeL][4Pal][NMePhe(3-Cl)][NMeL]D-Piperidide; lactam N-11), the Papp A→B at 180 min is reported as 1.1 ×10⁻⁶ cm/s. With `CC(C)C[C@@H]1NC(=O)[C@H](C)N(C)C(=O)C[C@@H](C(=O)N2CCCCC2)NC(=O)[C@H](CC(C)C)N(C)C(=O)CN(C)C(=O)[C@H]([C@@H](C)O)NC(=O)[C@H](CC(C)C)N(C)C(=O)[C@H](Cc2ccc(Cl)cc2)N(C)C(=O)[C@H](C)NC(=O)[C@H](Cc2ccccc2)N(C)C(=O)[C@H](CC(C)C)N(C)C1=O` [pd173] ([NMeA]L[NMeL][NMeF]A[NMePhe(4-Cl)][NMeL]T[Sar][NMeL]D-Piperidide; lactam N-11) the Papp A→B at 180 min was 1.6 ×10⁻⁶ cm/s. In the case of `CC[C@H](C)[C@@H]1NC(=O)[C@H](Cc2ccccc2)N(C)C(=O)CN(C)C(=O)C[C@@H](C(=O)N2CCCCC2)NC(=O)[C@H](C(C)C)N(C)C(=O)[C@H](COC(C)(C)C)NC(=O)[C@H](CC(C)C)N(C)C(=O)[C@H](Cc2ccc(Cl)cc2)N(C)C(=O)CN(C)C(=O)[C@H]([C@@H](C)O)NC(=O)[C@H](CC(C)C)N(C)C1=O` [pd175] ([Sar][NMeF]I[NMeL]T[Sar][NMePhe(4-Cl)][NMeL]S(tBu)[NMeV]D-Piperidide; lactam N-11), the Papp A→B at 180 min is reported as 1.1 ×10⁻⁶ cm/s. `CC[C@H](C)[C@@H]1NC(=O)[C@H](Cc2ccc(Cl)cc2)N(C)C(=O)CN(C)C(=O)C[C@@H](C(=O)N2CCCCC2)NC(=O)[C@H](C(C)C)N(C)C(=O)[C@H](COC(C)(C)C)NC(=O)[C@H](CC(C)C)N(C)C(=O)[C@H](Cc2ccccc2)N(C)C(=O)CN(C)C(=O)[C@H]([C@@H](C)O)NC(=O)[C@H](CC(C)C)N(C)C1=O` [pd176] ([Sar][NMePhe(4-Cl)]I[NMeL]T[Sar][NMeF][NMeL]S(tBu)[NMeV]D-Piperidide; lactam N-11) gave a Papp A→B at 180 min of 1.2 ×10⁻⁶ cm/s. In the case of `CC(C)C[C@H]1C(=O)N[C@@H](COC(C)(C)C)C(=O)N(C)[C@@H](Cc2ccccc2)C(=O)N(C)[C@@H](C(C)C)C(=O)N[C@H](C(=O)N2CCCCC2)CC(=O)N[C@H](C(C)C)C(=O)N(C)C(Cc2ccccc2)C(=O)N[C@@H](COCc2cncc(F)c2)C(=O)N(C)[C@@H](CC(C)C)C(=O)N[C@@H]([C@@H](C)O)C(=O)N(C)CC(=O)N1C` (stereo partly drawn) [pd180] ([dV][ξNMeF]S(X2)[NMeL]T[Sar][NMeL]S(tBu)[NMeF][NMeV]D-Piperidide; lactam N-11), the Papp A→B at 180 min is reported as 2.4 ×10⁻⁶ cm/s. `CC[C@H](C)[C@H]1C(=O)N[C@@H]([C@@H](C)O)C(=O)N(C)CC(=O)N(C)[C@@H](CC(C)C)C(=O)N[C@H](C(=O)N2CCCCC2)CC(=O)N(C)[C@@H](C(C)C)C(=O)N[C@@H](COCc2cncc(F)c2)C(=O)N(C)[C@@H](CC(C)C)C(=O)N(C)[C@@H](Cc2ccccc2)C(=O)N[C@@H](CC(C)C)C(=O)N(C)[C@@H](Cc2ccccc2)C(=O)N1C` [pd181] ([NMeV]S(X2)[NMeL][NMeF]L[NMeF][NMeI]T[Sar][NMeL]D-Piperidide; lactam N-11) showed a Papp A→B at 180 min of 1.1 ×10⁻⁶ cm/s. For `CC(C)C[C@H]1C(=O)N(C)[C@@H](Cc2ccccc2)C(=O)N[C@@H](COC(C)(C)C)C(=O)N(C)[C@@H](C)C(=O)N[C@H](C(=O)N2CCCCC2)CC(=O)N(C)[C@@H](C)C(=O)N(C)[C@@H](Cc2ccccc2)C(=O)N[C@@H](CCc2ccccc2)C(=O)N(C)[C@@H](CC(C)C)C(=O)N[C@@H]([C@@H](C)O)C(=O)N(C)CC(=O)N1C` [pd183] ([NMeA][NMeF][hPhe][NMeL]T[Sar][NMeL][NMeF]S(tBu)[NMeA]D-Piperidide; lactam N-11), the Papp A→B at 180 min was 2.1 ×10⁻⁶ cm/s. Compound `CC(C)C[C@H]1C(=O)N(C)[C@@H](CCc2ccccc2)C(=O)N[C@@H](COC(C)(C)C)C(=O)N(C)[C@@H](C)C(=O)N[C@H](C(=O)N2CCCCC2)CC(=O)N(C)[C@@H](C)C(=O)N(C)[C@@H](Cc2ccccc2)C(=O)N[C@@H](CCc2ccccc2)C(=O)N(C)[C@@H](CC(C)C)C(=O)N[C@@H]([C@@H](C)O)C(=O)N(C)CC(=O)N1C` [pd184] ([NMeA][NMeF][hPhe][NMeL]T[Sar][NMeL][NMehPhe]S(tBu)[NMeA]D-Piperidide; lactam N-11) has a Papp A→B at 180 min of 1.2 ×10⁻⁶ cm/s. Compound `CC(C)C[C@H]1C(=O)N[C@@H](COC(C)(C)C)C(=O)N(C)[C@@H](Cc2ccccc2)C(=O)N(C)[C@@H](C)C(=O)N[C@H](C(=O)N2CCCCC2)CC(=O)N[C@H](C(C)C)C(=O)N(C)[C@@H](Cc2ccccc2)C(=O)N[C@@H](CCCc2ccccc2)C(=O)N(C)[C@@H](CC(C)C)C(=O)N[C@@H]([C@@H](C)O)C(=O)N(C)CC(=O)N1C` [pd192] ([dV][NMeF][hhPhe][NMeL]T[Sar][NMeL]S(tBu)[NMeF][NMeA]D-Piperidide; lactam N-11) has a Papp A→B at 180 min of 1.1 ×10⁻⁶ cm/s. `CC(C)C[C@H]1C(=O)N[C@@H](CCCc2ccccc2)C(=O)N(C)[C@@H](Cc2ccccc2)C(=O)N(C)[C@@H](C(C)C)C(=O)N[C@H](C(=O)N2CCCCC2)CC(=O)N[C@H](C)C(=O)N(C)C(Cc2ccccc2)C(=O)N[C@@H](C(C)C)C(=O)N(C)[C@@H](CC(C)C)C(=O)N[C@@H]([C@@H](C)O)C(=O)N(C)CC(=O)N1C` (stereo partly drawn) [pd193] ([dA][ξNMeF]V[NMeL]T[Sar][NMeL][hhPhe][NMeF][NMeV]D-Piperidide; lactam N-11) gave a Papp A→B at 180 min of 1 ×10⁻⁶ cm/s.

Same assay, conditions: human, Caco-2, improved method, preincubation 20 to 24 hours; Papp, sample at 180 minutes; read-out: Caco-2
In the case of `CC(C)C[C@@H]1NC(=O)[C@H](Cc2ccc(Cl)cc2)N(C)C(=O)[C@H](CC(C)C)N(C)C(=O)[C@H](C(C)C)NC(=O)[C@H](C)N(C)C(=O)C[C@@H](C(=O)N2CCCCC2)NC(=O)[C@H](CC(C)C)N(C)C(=O)CN(C)C(=O)[C@H]([C@@H](C)O)NC(=O)[C@H](CC(C)C)N(C)C(=O)[C@H](Cc2ccccc2)N(C)C1=O` [pd174] ([NMeA]V[NMeL][NMePhe(4-Cl)]L[NMeF][NMeL]T[Sar][NMeL]D-Piperidide; lactam N-11), the Papp A→B at 180 min is reported as 1.3 ×10⁻⁶ cm/s.
